Assay results taken from ChEMBL document CHEMBL5223073, “Andrographolide suppresses cisplatin-induced endothelial hyperpermeability through activation of PI3K/Akt and eNOS -derived nitric oxide” (Bioorg Med Chem, 2020).
Activity calls are given as the source filed them. The calls are words filed in the database; no cut-off is given here.

Experiments:
[1] = test system: HUVEC; assay: Effect on total eNOS protein level in cisplatin-treated HUVEC cells at 30 uM measured after 5 to 240 mins by Western blot analysis; assay type: functional, cell-based; conditions: Homo sapiens, time 5-240 min
[2] = test system: HUVEC; assay: Inhibition of cisplatin-induced ICAM-1 protein expression in HUVEC cells preincubated for 30 mins followed by cisplatin addition and measured after 24 hrs by Western blot analysis; assay type: functional, cell-based; conditions: Homo sapiens, dose 10-30 µM, time 24.5 hrs

SMILES: C=C1CC[C@@H]2[C@](C)(CO)[C@H](O)CC[C@@]2(C)[C@@H]1C/C=C1/C(=O)OC[C@H]1O [ANDROGRAPHOLIDE]
- Activity [1]: inactive
- inhibition [2]: Dose-Dependent Effect
